Reference: US8426587B2, “Haloallylamine inhibitors of SSAO/VAP-1 and uses therefor” (Pharmaxis Ltd., priority 2007, dated 2013)
Where a name gives a salt, the structure may show the parent alone. Read-outs that look alike come from different tables or passages of the source.

Legend:
Mouse SSAO/VAP-1 = biological target: T1, Mouse SSAO/VAP-1 (Mus musculus, UniProt O70423); assay: Inhibition of amine oxidase activity of mouse SSAO/VAP-1 (3T3-L1 adipocytes, Amplex Red); assay type: biochemical; conditions: 3T3-L1 adipocyte SSAO, 40 μM benzylamine
T1 construct: Adipocytes were used as an SSAO source either as adherent cells or as a homogenate; endogenous in cells; host or cells: 3T3-L1 murine fibroblasts (ATCC) differentiated into adipocytes
T1 sequence (O70423 1-765): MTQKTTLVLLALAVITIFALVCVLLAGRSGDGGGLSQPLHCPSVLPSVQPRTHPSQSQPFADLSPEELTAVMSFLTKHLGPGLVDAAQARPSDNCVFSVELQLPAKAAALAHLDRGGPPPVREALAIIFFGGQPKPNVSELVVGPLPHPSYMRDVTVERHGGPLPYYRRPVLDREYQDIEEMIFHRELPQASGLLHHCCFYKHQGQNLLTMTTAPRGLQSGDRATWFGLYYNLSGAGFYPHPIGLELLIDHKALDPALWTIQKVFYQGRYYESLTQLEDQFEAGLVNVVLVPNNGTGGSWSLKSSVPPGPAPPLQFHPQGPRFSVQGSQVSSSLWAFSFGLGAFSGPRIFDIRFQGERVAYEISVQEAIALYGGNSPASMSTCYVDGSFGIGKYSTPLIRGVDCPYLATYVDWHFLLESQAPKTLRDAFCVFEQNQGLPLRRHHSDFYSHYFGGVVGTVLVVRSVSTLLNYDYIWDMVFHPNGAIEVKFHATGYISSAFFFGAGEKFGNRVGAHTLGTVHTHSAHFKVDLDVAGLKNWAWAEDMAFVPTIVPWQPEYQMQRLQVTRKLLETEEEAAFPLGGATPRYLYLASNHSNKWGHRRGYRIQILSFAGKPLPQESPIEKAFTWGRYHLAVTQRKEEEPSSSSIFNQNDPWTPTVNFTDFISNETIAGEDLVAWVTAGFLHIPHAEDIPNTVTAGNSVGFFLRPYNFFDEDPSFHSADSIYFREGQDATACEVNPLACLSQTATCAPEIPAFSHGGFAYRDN
Excerpt: 3T3-L1 Murine fibroblasts were purchased from the American Type Culture Collection (ATCC, Rockville, Md.). Dulbecco's Modified Eagle Medium (DMEM) and fetal calf serum (FCS), antibiotics and Amplex® Red were obtained from Invitrogen (Carlsbad, Calif.). Tissue culture plastics and black clear-bottom 96 well plates were from BD Falcon (Bedford, Mass.). Bicinchoninic acid (BCA) reagent was from Pierce (Rockford, Ill.). All other materials were obtained from Sigma (St. Louis, Mo.).
3T3-L1 Fibroblasts were cultured in DMEM supplemented with 10% heat-inactivated FCS, 2 mM L-glutamine, 100 U/L penicillin and 100 μg/L streptomycin at 37° C. in 5% CO2. For differentiation into adipocytes, fibroblasts were cultured in DMEM with FCS for 1 or 2 days postconfluence, after which the cells were cultured for 3 days in DMEM containing 10% FCS, 350 nM insulin, 0.5 mM 3-isobutyl-1-methylxanthine, 250 nM dexamethasone, and 400 nM biotin and for 3 days in DMEM containing 10% FCS and 350 nM insulin. After differentiation, adipocytes were maintained in DMEM supplemented with 10% FCS. Adipocytes were used for experiments 8 to 11 days after the onset of differentiation, and the medium was renewed 2 or 3 days prior to each experiment. For culturing in black clear-bottom 96-well plates, cells were seeded at a 1:1 cell surface ratio, and differentiation was initiated 4 days postseeding. Cells were used between days 6-12 post-differentiation and between passages 7 and 20. Adipocytes were used as an SSAO source either as adherent cells or as a homogenate.
To prepare homogenate, 10 cm dishes of adipocytes were washed with HES buffer (20 mM HEPES, 1 mM EDTA, 250 mM sucrose, pH 7.4) and scraped in HES buffer containing 10 μg/mL leupeptin, 10 μM pepstatin and 1 mM PMSF. Cells were lysed by passage through a 23 G needle followed by passage through a 27 G needle. The lysate was spun at 500 g for 5 min and fat was removed. Protein concentration of the supernatant was measured using a BCA assay according to the manufacturer's instructions. The homogenate was stored at −80° C. until needed.
To measure the SSAO activity, adipocyte homogenate (0.5 mg/mL) or adipocytes (adhering cells) containing 0.5 mM pargyline, or purified human SSAO was incubated in 0.1 M sodium phosphate buffer pH 7.4 with varying concentrations of test compounds for 30 min at 37° C. The homogenate was then incubated at 37° C. with 60 μM Amplex® Red, 0.75 U/mL HRP and 40 μM benzylamine (mouse SSAO) or 300 μM benzylamine (human SSAO) and the formation of resorufin was measured (excitation range 530-560 nm and emission at 590 nm) every 10 min in either a Tecan Infinite 200 or a BMG plate reader. The IC50 values were estimated using Graphpad Prism software. The IC50 is an estimation of the concentration of the test compound to inhibit the amine oxidase activity of SSAO/VAP-1 by 50%. The IC50 values of certain invention compounds are included in Table 1.

SSAO/VAP-1 = biological target: T2, SSAO/VAP-1 (Mus musculus, UniProt O70423); assay: In vivo inhibition of SSAO/VAP-1 activity in mouse genital fat; design: species or system BALB/C mice; conditions: ip
T2 construct: the genital fat was excised and frozen; The tissue was homogenized; from tissue; host or cells: genital fat of BALB/C mice
T2 sequence (O70423 1-765): T1 sequence (O70423 1-765)
Protocol: In vivo inhibition was assessed in mouse genital fat, a tissue with high SSAO/VAP-1 expression. 10 BALB/C mice (5 males and 5 females) were administered 0 mg/kg, 10 mg/kg, 30 mg/kg or 100 mg/kg SSAO/VAP-1 inhibitor by intraperitoneal injection. Two hours after administration the mice were sacrificed and the genital fat was excised and frozen. The tissue was homogenized in 0.01 M sodium phosphate buffer pH 7.4 (10 mL/g) and used to measure SSAO activity using Amplex® Red. ED50 was estimated Using Graphpad Prism software.

[1] = system: experimental autoimmune encephalomyelitis; conditions: reported in US 2006/0025438 A1; cited from earlier work
[2] = system: LPS-induced pulmonary inflammation; conditions: cited from earlier work
[3] = female BALB/C mice, intraperitoneal, genital fat SSAO activity two hours after administration, read-out: Female Mice ED50 [ip]
[4] = male BALB/C mice, intraperitoneal, genital fat SSAO activity two hours after administration, read-out: Male Mice ED50 [ip]

Compound | IC50 (Mouse SSAO/VAP-1; 30 min at 37° C. preincubation) | ED50 (SSAO/VAP-1; [3]) | ED50 (SSAO/VAP-1; [4]) | IC50 (Mouse SSAO/VAP-1) | ED50 (SSAO/VAP-1; read-out: Female Mice ED50 [ip]) | ED50 (SSAO/VAP-1; read-out: Male Mice ED50 [ip]) | Inhibition of experimental autoimmune encephalomyelitis [1] | BAL cell counts ([2]; mouse overexpressing human SSAO/VAP-1, LPS) | LPS-induced increase in TNF-a ([2]; mouse overexpressing human SSAO/VAP-1)
Cc1nc2cc(OC/C(F)=C\CN)ccc2s1.Cl [(E)-3-Fluoro-4-(2-methylbenzo[d]thiazol-5-yloxy)but-2-en-1-amine hydrochloride] | < 1000 nM | < 100 mg/kg | < 50 mg/kg | – | – | – | – | – | –
NC/C=C(/F)COc1ccc(C(=O)NC2CCCCC2)cc1 [(E)-4-(4-amino-2-fluorobut-2-enyloxy)-N-cyclohexylbenzamide hydrochloride] | < 1000 nM | – | – | – | < 50 mg/kg | < 50 mg/kg | – | – | –
NC/C(=C/F)CCc1ccc(F)cc1 [Mofegiline, reference compound] | – | < 1 mg/kg | < 1 mg/kg | 1 nM | – | – | inhibit experimental autoimmune encephalomyelitis | significantly reduces | significantly attentuates

Continued, in another order:

IC50 (Mouse SSAO/VAP-1; 30 min at 37° C. preincubation) | ED50 (SSAO/VAP-1; [3]) | ED50 (SSAO/VAP-1; [4]) | IC50 (Mouse SSAO/VAP-1) | Compound | ED50 (SSAO/VAP-1; read-out: Female Mice ED50 [ip]) | ED50 (SSAO/VAP-1; read-out: Male Mice ED50 [ip]) | Inhibition of experimental autoimmune encephalomyelitis [1] | BAL cell counts ([2]; mouse overexpressing human SSAO/VAP-1, LPS) | LPS-induced increase in TNF-a ([2]; mouse overexpressing human SSAO/VAP-1)
< 1000 nM | < 300 mg/kg | < 100 mg/kg | – | CS(=O)(=O)c1ccc(OC/C(F)=C\CN)cc1.Cl [(E)-3-Fluoro-4-(4-(methylsulfonyl)phenoxy)but-2-en-1-amine hydrochloride] | – | – | – | – | –
< 1000 nM | < 50 mg/kg | < 50 mg/kg | – | C[C@H](NS(=O)(=O)c1ccc(OC/C(F)=C\CN)cc1)c1ccccc1.Cl [(S,E)-4-(4-Amino-2-fluorobut-2-enyloxy)-N-(1-phenylethyl)benzenesulfonamide] | – | – | – | – | –
